Assay results from patent US8232315B2, “Methods for treating drug addiction and improving addiction-related behavior” (SK Biopharmaceuticals Co., Ltd., priority 2009, dated 2012).

System: monkeys trained to discriminate cocaine (0.40 mg/kg) from saline
Test: Cocaine drug discrimination (substitution protocol) in rhesus monkeys
Format: in vivo, rhesus monkeys (Macaca mulatta)
Conditions: 0.40 mg/kg cocaine i.m.; training days preceding test days
Source text: Subjects: The subjects were four male rhesus monkeys (Macaca mulatta) each weighing 7.0-8.0 kg. Each monkey was maintained on a diet of 7-12 monkey biscuits (Purina Monkey Chow Jumbo #5037) and one piece of fresh fruit per day. During the week, all food was delivered after the experimental session, whereas on weekends, food was delivered between 9 a.m. and noon. Water was freely available at all times. The room in which the monkeys were housed was maintained on a 12-hr light/dark cycle, with lights on from 7 a.m. to 7 p.m.
Apparatus: Each monkey was housed individually in a well-ventilated, stainless steel chamber (56×71×69 cm). The home cages of all monkeys were modified to include an operant panel (28×28 cm) mounted on the front wall. Three square translucent response keys (6.4×6.4 cm) were arranged 2.54 cm apart in a horizontal row 3.2 cm from the top of the operant panel. Each key could be transilluminated by red or green stimulus lights (Superbright LED'S). In addition, the operant panel supported an externally mounted pellet dispenser (Gerbrands, Model G53 10, Arlington, Mass.) that delivered 1 gm fruit-flavored food pellets (Precision Primate Pellets Formula L/I Banana Flavor, P. J. Noyes Co., Lancaster, N.H.) to a food receptacle mounted on the cage beneath the operant response panel. Operation of the operant panels and data collection were accomplished with IBM-compatible computers and interface systems (MedAssociates; St. Albans, Vt.) located in a separate room.
Discrimination Training: Discrimination training was conducted 5 days per week during daily sessions composed of multiple cycles. Each cycle consisted of a 15-min time-out period followed by a 5-min response period. During the time-out, all stimulus lights were off, and responding had no scheduled consequences. During the response period, the right and left response keys were transilluminated red or green, and monkeys could earn up to 10 food pellets by responding under a FR 30 schedule of food presentation. For all four monkeys in this study, the left key was illuminated green, and the right key was illuminated red. The center key was not illuminated at any time, and responding on the center key had no scheduled consequences. If all available food pellets were delivered before the end of the 5-min response period, the stimulus lights transilluminating the response keys were turned off, and responding had no scheduled consequences for the remainder of the 5-min period.
On training days, monkeys were given an i.m. injection of either saline or 0.40 mg/kg cocaine 5-min after the beginning of each time-out period (i.e., 10 min before the response period). Following the administration of saline, responding on only the green key (the saline-appropriate key) produced food, whereas following administration of 0.40 mg/kg cocaine, only responding on the red key (the drug-appropriate key) produced food. Responses on the inappropriate key reset the FR requirement on the appropriate key. Sessions consisted of 1 to 5 cycles, and if the training dose of cocaine was administered, it was administered only during the last cycle. Thus, training days consisted of 0 to 5 saline cycles followed by 0 to 1 drug cycles.
During each response period, 3 dependent variables were determined using the following equations.
1) Percent injection-appropriate responding prior to delivery of the first reinforcer.
2) Percent injection-appropriate responding for the entire response period.
Monkeys were considered to have acquired cocaine discrimination when the following three criteria were met for 7 of 8 consecutive training sessions: 1) the percent injection-appropriate responding prior to delivery of the first reinforcer was greater than or equal to 80% for all cycles; 2) the percent injection-appropriate responding for the entire cycle was greater than or equal to 90% for all cycles; 3) response rates during saline training cycles were greater than 0.5 responses per second. […]

With `COC(=O)[C@H]1[C@@H](OC(=O)c2ccccc2)C[C@@H]2CC[C@H]1N2C` [cocaine, reference compound] the “Mean response rate during drug training cycles” value was 2.58 (±0.67) responses/sec.
